Assay results from US10793543B2, “Selective C-KIT kinase inhibitor” (PRECEDO PHARMACEUTICALS CO., LTD, priority 2016, dated 2020).

Tests used:
[1] = system: gastrointestinal stromal tumor cell lines GIST-T1; test: Mouse tumor model of GIST-T1 cells; assay type: in vivo; conditions: for tumor inhibition rate: Day 28 after administration
Description: 1. 4-6 week-old Bal b/c female mice were purchased from Shanghai SLAC Experimental Animal Co., Ltd., and were raised in a SPF-level laboratory. Drinking water and padding were both subjected to aseptic processing via high-pressure disinfection, and all operations of the mice were conducted under aseptic conditions;
2. About 5×10^6 gastrointestinal stromal tumor cell lines GIST-T1 or GIST-882 (purchased from ATCC) were respectively injected subcutaneously at left side back of all mice at Day 0;
5. Mice were sacrificed on Day 36 (for GIST-882 mouse model) or Day 43 (GIST-T1 mouse model) and subcutaneous tumors were taken out and weighed for comparison;
6. Tumor tissue specimens were prepared into protein lysate samples for further usage;
7. Growth trend of subcutaneous tumors from Day 16 to Day 43 was derived, and tumor volume was calculated as length×width×width/2 mm^3.

[2] = system: Tel-ABL-BaF3 cells (ABL WT); test: Cell proliferation, CCK-8, Tel-ABL-BaF3; assay type: cell-based; conditions: Mus musculus; Tel-ABL-BaF3, ABL WT, 72 hours, CCK-8; read-out: GI50
From the text: In addition, in the present example, further uses: mouse P210/BaF3 (stably expressing P210 Bcr-Abl mutant gene), mouse Tel-ABL-BaF3 (stably expressing wild-type ABL kinase), mouse Tel-cKit-BaF3 (stably expressing C-KITwild-type kinase), mouse Tel-cKit/V559D-BaF3 (stably expressing C-KIT V559D mutant kinase), mouse Tel-cKit/V559D/V654A-BaF3 (stably expressing C-KIT V559D/V654A mutant kinase), mouse Tel-cKit/N822K-BaF3 (stably expressing C-KIT N822K mutant kinase), mouse Tel-cKit/V654A-BaF3 (stably expressing C-KIT V654A mutant kinase), mouse Tel-cKit/L567P-BaF3 (stably expressing C-KIT L567P mutant kinase), mouse Tel-cKit/T670I-BaF3 (stably expressing C-KIT T670I mutant kinase), mouse Tel-PDGFRα-BaF3 (stably expressing PDGFRα kinase), mouse Tel-PDGFRβ-BaF3 (stably expressing PDGFRβ kinase), mouse Tel-VEGFR2-BaF3 (stably expressing VEGFR2 kinase), mouse Tel-RET-BaF3 (stably expressing RET kinase). […]
(§1) The cells were incubated for 72 hours, and then the number of viable cells was quantified with a microplate reader by using CCK-8 Cell Viability Assay Kit (purchased from Bestbio Company, Shanghai, China) (CCK-8 can be reduced by dehydrogenase in living cells to a highly water-soluble yellow formazan product, and the amount of formazan produced is proportional to the number of living cells).

protein kinase C-KIT = target: T1, protein kinase C-KIT (Homo sapiens, UniProt P10721); test: In vitro enzyme activity assay (ADP-Glo); assay type: biochemical; conditions: purified C-KIT kinase domain, ATP 10 μM
T1 construct: The kinase domain of protein kinase C-KIT was cloned into the insect expression vector pFASTHTA; His tag; made in house; host or cells: SF9 insect cells (Bac-to-Bac baculovirus system)
T1 sequence (P10721 589-937 limits assumed): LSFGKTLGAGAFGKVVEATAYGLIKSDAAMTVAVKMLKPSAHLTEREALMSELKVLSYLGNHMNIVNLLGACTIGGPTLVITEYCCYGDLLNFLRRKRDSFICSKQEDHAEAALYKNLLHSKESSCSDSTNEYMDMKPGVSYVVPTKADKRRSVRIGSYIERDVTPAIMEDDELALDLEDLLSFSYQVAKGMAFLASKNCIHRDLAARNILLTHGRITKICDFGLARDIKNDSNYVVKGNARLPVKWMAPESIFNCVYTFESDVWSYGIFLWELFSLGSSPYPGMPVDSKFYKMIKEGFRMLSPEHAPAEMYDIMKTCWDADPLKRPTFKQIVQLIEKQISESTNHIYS
Description: The IC50 value of Compound 4 against protein kinase C-KIT was determined in an in vitro enzyme activity assay. The kinase domain of protein kinase C-KIT was cloned into the insect expression vector pFASTHTA (purchased from Invitrogen life technologies), and the protein with His tag was expressed using the insect expression system Bac-to-Bac Baculovirus Expression System (purchased from Invitrogen life technologies). The constructed vector was transfected into SF9 packaging virus (purchased from Invitrogen life technologies), and the virus was used to infect SF9 to express the protein. Purification was performed using affinity chromatography.
9 μL (6 ng/μL) of purified C-KIT protein kinase was reacted with 1 μL of the above Compound 4 with 3× gradient dilution (the final concentrations of the drug were 10 μM, 3 μM, 1 μM, 0.3 μM, 0.1 μM, 0.03 μM, 0.01 μM, 0.003 μM) at room temperature for 4 hours;
2 μL of ATP and 3 μL of substrate, Poly(4:1 Glu, Tyr)Peptide (Promega, US), were added (final concentrations were 10 μM and 0.2 μg/μL, respectively), and reacted at 37° C. for 1 hour; […]
10 μL of kinase detection reagent was added to transfer ADP into ATP, and the newly synthesized ATP was detected by using coupled luciferase/fluorescein reaction, then the IC50 values were calculated by using a plotting method based on the Envision reading.

[3] = system: K562 cells (P210 Bcr-Abl); test: Cancer cell proliferation, CCK-8, K562; assay type: cell-based; conditions: Homo sapiens; K562, P210 Bcr-Abl, 72 hours, CCK-8; read-out: GI50
From the text: (§2) In the present example, the following cells were used: chronic myelogenous leukemia cells K562 (expressing P210 Bcr-Abl mutant gene), human megakaryocytic leukemia cells MEG-01 (expressing P210 Bcr-Abl mutant gene), human peripheral blood basophilic leukemia cells Ku812 (expressing Bcr-Abl mutant gene) (all above cells purchased from ATCC, USA), human gastrointestinal stromal tumor cell lines GIST-T1 cells (expressing wild-type C-KIT gene) (purchased from Cosmo Bio Co., Ltd., Japan), human gastrointestinal stromal tumor cell lines GIST-882 cells (expressing wild-type C-KIT gene) (presented by the Professor Gray Lab, Dana-Farber Cancer Institute, Harvard University, USA), mouse pro-B cells BaF3 (purchased from ATCC, USA).
as §1

[4] = system: MEG-01 cells (P210 Bcr-Abl); test: Cancer cell proliferation, CCK-8, MEG-01; assay type: cell-based; conditions: Homo sapiens; MEG-01, P210 Bcr-Abl, 72 hours, CCK-8; read-out: GI50
From the text: as §2, §1

[5] = system: Tel-cKit/V559D-BaF3 cells (KIT V559D); test: Cell proliferation, CCK-8, Tel-cKit/V559D-BaF3; assay type: cell-based; conditions: Mus musculus, 72 hours
From the text: In addition, in the present example, further uses: mouse P210/BaF3 (stably expressing P210 Bcr-Abl mutant gene), mouse Tel-ABL-BaF3 (stably expressing wild-type ABL kinase), mouse Tel-cKit-BaF3 (stably expressing C-KITwild-type kinase), mouse Tel-cKit/V559D-BaF3 (stably expressing C-KIT V559D mutant kinase), mouse Tel-cKit/V559D/V654A-BaF3 (stably expressing C-KIT V559D/V654A mutant kinase), mouse Tel-cKit/N822K-BaF3 (stably expressing C-KIT N822K mutant kinase), mouse Tel-cKit/V654A-BaF3 (stably expressing C-KIT V654A mutant kinase), mouse Tel-cKit/L567P-BaF3 (stably expressing C-KIT L567P mutant kinase), mouse Tel-cKit/T670I-BaF3 (stably expressing C-KIT T670I mutant kinase), mouse Tel-PDGFRα-BaF3 (stably expressing PDGFRα kinase), mouse Tel-PDGFRβ-BaF3 (stably expressing PDGFRβ kinase), mouse Tel-VEGFR2-BaF3 (stably expressing VEGFR2 kinase), mouse Tel-RET-BaF3 (stably expressing RET kinase). The above cell lines were all constructed by our laboratory according to the following method: the kinase region sequences of human P210 Bcr-Abl, ABL, C-KIT, C-KIT V559D, C-KIT V559D/V654A, C-KIT N822K, C-KIT V654A, C-KIT L567P, C-KIT T670I, PDGFRα, PDGFRβ, VEGFR2, RET were amplified respectively by PCR, inserted respectively into MSCV-Puro vectors harboring N-terminal TEL fragment and/or NPM fragment and/or TPR fragment (Clontech), then the vectors were stably transfected into mouse BaF3 cells by retrovirus methods and growth factor IL-3 was removed, eventually obtaining cell lines that are transferred protein (P210 Bcr-Abl, ABL, C-KIT, C-KIT V559D, C-KIT V559D/V654A, C-KIT N822K, C-KIT V654A, C-KIT L567P, C-KIT T670I, PDGFRα, PDGFRβ, VEGFR2, RET)-dependent.
as §1

Cc1ccc(NC(=O)c2cccc(C(F)(F)F)c2)cc1OC1CCN(C(=O)c2ccncc2)CC1 [Compound 4]
inhibitory effect on mouse tumors ([1]; 25 mg/kg oral daily, Day 4 after administration): certain inhibitory effect
tumor inhibition rate ([1]; 50 mg/kg oral daily): 65.3%
tumor inhibition rate ([1]; 100 mg/kg oral daily): 73.8%
effect on body weight of mice ([1]; oral daily dosing): no effect on the body weight of mice
GI50 [2]: 5.06 µM
IC50 (protein kinase C-KIT): 0.099 µM
GI50 [3]: > 10 µM
GI50 [4]: 7.43 µM
GI50 [5]: 0.04 µM
